Assays:
[1] = test system: zebrafish larvae, 120 hpf; assay: Larval photomotor response (LPR) assay after vial exposure; format: in vivo, Danio rerio; details: for fold_change: LPR
Protocol: (§1) When embryos were 6 hpf they were bleached in groups of 1000 or less to limit bacterial growth in sealed vials. Embryos were placed in a strainer for transfer between solutions in 500 mL containers. […] Pools of eight embryos were placed into 2 mL clear glass screw cap exposure vials with polyvinyl-faced pulp liner (Avantar Radnor, PA, United States) using a glass Pasteur pipette. Excess EM was removed, and 2 mL of fresh EM was immediately added. A total of 10 uL of 200x working stock (in DMSO) was added to each vial, then immediately capped and inverted three times to mix. […] Vials were loaded into a custom 3D printed vial holder for slow end-over-end rotation in a dark 28 °C incubator overnight. […] At 24 hpf, embryos were removed from exposure vials and singulated into 96-well plates loaded with 100 μL chemical-free EM. Each exposure vial group was maintained in plate columns. After loading into 96-well plates, embryos were assessed for 24-hour mortality. For the remainder of the exposure, plates were kept stationary at 28 °C in the dark, until 120 hpf when morphology screening and the larval photo motor response (LPR) assay were conducted, section 2.3.2 and section 2.3.3, respectively.
Each treatment group was replicated over four vials, resulting in 32 embryos per treatment, split over two replicate 96-well plates per chemical. […] Vial groups of plated larvae were tracked to assess the impact of the vial on the results. All reported concentrations were nominal water concentrations and are included in SI-T4.
The LPR assay was conducted at 120 hpf. […] Larval movement was tracked throughout minutes 6–24. Animals dead or morphologically abnormal were excluded from the analysis, and if more than 30 % of the wells in a treatment group were excluded, the treatment was removed.
Movement values were binned into 6s intervals, log normalized and used to calculate area under the curve (AUC). AUC values from the first cycle after calibration were used to calculate the LEL for each period (light and dark).

[2] = test system: early life stage zebrafish (Danio rerio) embryos; assay: Developmental toxicity morphology screen, sealed rotating vial exposure; format: in vivo; design: bmd, MO24 / bmd, MORT / bmd, ANY_ / bmd, AXIS / bmd, CRAN / bmd, EDEM / bmd, LTRK / bmd, MUSC / bmdL, ANY_ / bmdU, ANY_ / bmdL, AXIS / bmdU, AXIS / bmdL, CRAN / bmdU, CRAN / bmdL, EDEM / bmdU, EDEM / bmdL, LTRK / bmdU, LTRK / bmdL, MO24 / bmdU, MO24 / bmdL, MORT / bmdU, MORT: unit not given here; details: for BMC50 AXIS (curved or bent body axis at 120 hpf) / BMC50 CRAN (craniofacial malformation at 120 hpf) / BMC50 EDEM (pericardial and/or yolk sac edema at 120 hpf) / BMC50 LTRK (lower trunk and/or caudal fin at 120 hpf) / BMC50 MO24 (mortality at 24 hpf) / BMC50 MORT (mortality at 120 hpf): Fig. 2; for BMC50 AXIS (curved or bent body axis at 120 hpf) / BMC50 CRAN (craniofacial malformation at 120 hpf) / BMC50 EDEM (pericardial and/or yolk sac edema at 120 hpf) / BMC50 LTRK (lower trunk and/or caudal fin at 120 hpf) / BMC50 MO24 (mortality at 24 hpf) / BMC50 MORT (mortality at 120 hpf) / BMC50 Any effect: nominal concentration; for BMC50 Any effect: Fig. 2 heatmap, exposure 6-24 hpf in vials, summary of all endpoints; for any effect BMD50: SI-T5; for bmd, MO24 / bmd, MORT / bmd, ANY_ / bmd, AXIS / bmd, CRAN / bmd, EDEM / bmd, LTRK: benchmark dose; for bmd, MO24: endpoint MO24; for bmd, MORT: endpoint MORT; for bmd, ANY_: morphology endpoint ANY_ (any effect); for bmd, AXIS: morphology endpoint AXIS; for bmd, CRAN: morphology endpoint CRAN; for bmd, EDEM: morphology endpoint EDEM; for bmd, LTRK: morphology endpoint LTRK
Protocol: as §1
Each treatment group was replicated over four vials, resulting in 32 embryos per treatment, split over two replicate 96-well plates per chemical. […] All reported concentrations were nominal water concentrations and are included in SI-T4.
At 24 hpf embryos were assessed for mortality (MO24). At 120 hpf embryos were assessed for abnormality in […] morphological endpoints: mortality (MORT), edemas (EDEM), bent axis (AXIS), touch response (TCHR), craniofacial (CRAN), muscular/cardiovascular (MUSC), lower trunk (LRTK), brain (BRAN), skin (SKIN), and notochord malformations (NC). Morphological assessments were made by a team of three to four individuals. The team was blinded to the identity, plate layout, and concentrations of the chemicals, thereby minimizing bias in morphological screening assessment. To ensure the assessments were consistent, concentration–response reproducibility of a parathion ethyl quality control plate was performed along with each experimental exposure set up. Details of all measured endpoints can be found at Developmental toxicity zebrafish phenotype atlas. […] Each endpoint was scored as a binary presence/absence and scores were compiled into an “Any effect” endpoint, the presence of abnormality in any individual endpoint.
The Any effect percent was used to calculate the BMC50, 50 % change relative to the background for each endpoint and chemical. All values were reported as the nominal exposure concentration.

[3] = period dark, round 1, conc 3.125
[4] = period dark, round 1, conc 6.25
[5] = period dark, round 1, conc 12.5
[6] = period light, round 1, conc 3.125
[7] = period light, round 1, conc 6.25
[8] = period light, round 1, conc 12.5

SMILES	fold_change [1, 3]	fold_change [1, 4]	fold_change [1, 5]	fold_change ([1]; period dark, round 1, conc 25)	fold_change [1, 6]	fold_change [1, 7]	fold_change [1, 8]	BMC50 AXIS (curved or bent body axis at 120 hpf) [2] [µM]	BMC50 CRAN (craniofacial malformation at 120 hpf) [2] [µM]	BMC50 EDEM (pericardial and/or yolk sac edema at 120 hpf) [2] [µM]	BMC50 MO24 (mortality at 24 hpf) [2] [µM]	BMC50 MORT (mortality at 120 hpf) [2] [µM]	BMC50 Any effect [2] [µM]	any effect BMD50 [2] [µM]	bmd, MO24 [2]	bmd, MORT [2]	bmd, ANY_ [2]	bmd, AXIS [2]	bmd, CRAN [2]	bmd, EDEM [2]	also measured
Cc1ccc2c(C)c(C)ccc2c1C [1,2,5,6-tetramethylnaphthalene]	-0.03133	-0.4187	-0.4196	-0.1628	0.2549	-0.3197	0.8672														fold_change ([1]; period dark, round 1, conc 50): -0.3813; fold_change ([1]; period light, round 1, conc 25): -0.1531; fold_change ([1]; period light, round 1, conc 50): 0.1565
Cc1ccc2ccccc2c1C [1,2-dimethylnaphthalene]																					LPR behavioral effect ([1]; 120 hpf, light/dark periods, result in words): active
Cc1cc2c(C)ccc(C)c2cc1C [1,4,6,7-tetramethylnaphthalene]	0.4047	-0.3364	-0.3332		-0.4049	0.02072	-0.2213	21.1	23.9	22.5	35.4	29.4	20.5	20.47	35.4057	29.3744	20.4728	21.1106	23.8517	22.5215	BMC50 LTRK (lower trunk and/or caudal fin at 120 hpf) [2]: 22.6 µM; bmd, LTRK [2]: 22.6067
Cc1ccc(C)c2ccccc12 [1,4-dimethylnaphthalene]	0.2846	-0.05841	-0.1506	-0.2067	0.303	-0.4509	1.1				30.4	28.3	24.9	24.93	30.4433	28.3398	24.9263				fold_change ([1]; period light, round 1, conc 25): 0.6023
Cc1cc2cccc(C)c2cc1C [1,6,7-trimethylnaphthalene]	-0.2752	-0.07056	-0.09309		-0.921	-0.5316	-0.2101	32.1	28.2	34.7	38.9	31.5	21.4	21.39	38.9242	31.4823	21.386	32.075	28.1944	34.7005	BMC50 LTRK (lower trunk and/or caudal fin at 120 hpf) [2]: 32.9 µM; bmd, LTRK [2]: 32.865; fold_change ([1]; period dark, round 2, conc 12.8): -0.1665; fold_change ([1]; period dark, round 2, conc 16): -0.296; fold_change ([1]; period dark, round 2, conc 20): -0.09002; fold_change ([1]; period light, round 2, conc 12.8): 0.6308; fold_change ([1]; period light, round 2, conc 16): -0.8625; fold_change ([1]; period light, round 2, conc 20): 0.7418
Cc1ccc2c(C)cccc2c1 [1,6-dimethylnaphthalene]								46.6	42.5	46	46.6	43.4	34.6	34.56	46.5621	43.4183	34.5645	46.5655	42.4789	45.9847	
